# Values of other authors as cited in publication PMC9371267 (PLoS Biology, 2022).
# B1: spexin (peptide, UniProt Q9BT56 27-116, looked up)
# Spexin: APQRLLERRNWTPQAMLYLKGAQGRRFISDQSRRKDLSDRPLPERRSPNPQLLTIPEAATILLASLQKSPEDEEKNFDQTRFLEDSLLNW
# modifications: Spexin
# How the values were obtained:
# [1] = system: GALR2 vs GALR1; conditions: GALR2 over GALR1; ref [3]–[5]; cited from earlier work
# From the text: Its GPCR family receptors (from GALR1 to GALR3) are associated with different disease states and have been used as markers for certain cancer types. […] Agonists for GALR2 are be ...
# [2] = system: GALR2 and GALR3 vs GALR1; conditions: ref [3],[14]; cited from earlier work
# From the text: Phe264 and Leu266 in ECL3 contact Leu10^P and Trp2^P ...
# [3] = system: GALRs; conditions: Trp2 replaced with alanine; ref [4]; cited from earlier work
# From the text: (§1) Activated GPCRs act as nucleotide exchange factors through direct interactions with heterotrimeric G-proteins. The C-terminal helix of mGαqiN fits into a hydrophobic pocket formed by TM 5–7 of GALR2 (Fig 1B). Phe228, Ile235, Asn239, and Tyr243 of mGαqiN form the principal interface with GALR2, and a salt bridge forms between Glu135^ICL2 of GALR2 and Arg32 of mGαqiN (Fig 1B). […] The modeled fra ...
# [4] = system: GALR2; conditions: endogenous ligands; ref [13]; cited from earlier work
# From the text: as §1
molecule,measurement,setting,value
galanin^2–11: truncated peptide galanin^2–11,binds to GALR2 more tightly than GALR1,[1],roughly 500 times
same,receptor specificity,[2],specificity for GALR2 and GALR3 over GALR1
"Trp2^P of galanin with alanine: galanin with Trp2^P replaced with alanine (GATLNSAGYLLGPHAVGNHRSFSDKNGLTS; Galanin; UniProt P22466 33-62, looked up, variant W2A)",binding to GALRs,[3],prevents binding to GALRs
"galanin-like peptide (APAHRGRGGWTLNSAGYLLGPVLHLPQMGDQDGKRETALEILDLWKAIDGLPYSHPPQPS; Galanin-like peptide; UniProt Q9UBC7 25-84, looked up) [GALP]",activation of GALR2,[4],activate GALR2
B1,activation of GALR2,[4],activate GALR2
